Source: US20240358693A1, “METHODS OF TREATING PAIN” (Aisa Pharma, Inc., priority 2023, published 2024)

Test system: participants with SSc-RP
Test: Scleroderma Health Assessment Questionnaire (SHAQ): disability indices and visual analog scales
Type: in vivo, human
Method in brief: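 Participants with SSc-RP completed the SHAQ at screening and each in-clinic visit. Standard and alternative disability indices (eight categories, 0–3; standard adjusts for aids/assistance) plus Raynaud's VAS on interference over the past 7 days. Reported as absolute change from baseline to end of each dosing period.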

[1] = Baseline, Tadalafil 5 mg (N = 5), Patients with Diagnosis of SSc, PP Population Part A
[2] = Day 12, Modified ITT, Part A, dose Cilnidipine 10 mg, Tadalafil 5 mg, or 10 mg + 5 mg
[3] = Day 12, Tadalafil 5 mg (N = 5), Patients with Diagnosis of SSc, PP Population Part A
[4] = Day 12, mITT Part A, SSc patients, cilnidipine 10 mg and/or tadalafil 5 mg as in the arm
[5] = Day 12, mITT Part A, SSc patients, cilnidipine 10 mg and/or tadalafil 5 mg as in the arm, subject 01-110 score excluded
[6] = In-Clinic Visit (Day 12), Tadalafil 5 mg (N = 5), Patients with Diagnosis of SSc, PP Population Part A
[7] = Modified ITT, Part A, dose Cilnidipine 10 mg, Tadalafil 5 mg, or 10 mg + 5 mg

CN1CC(=O)N2[C@H](c3ccc4c(c3)OCO4)c3[nH]c4ccccc4c3C[C@@H]2C1=O [Tadalafil, tadalafil]
SHAQ Alternative Disability Index, Mean [1]: 0.450 | SHAQ Alternative Disability Index, Median [1]: 0.375 | SHAQ Standard Disability Index, Mean [1]: 0.550 | SHAQ Standard Disability Index, Median [1]: 0.500 | SHAQ Alternative Disability Index, Change from Baseline, Mean [2]: −0.094 | SHAQ Alternative Disability Index, Change from Baseline, Median [2]: −0.125 | SHAQ Alternative Disability Index, Percent Change from Baseline, Mean [2]: −43.70% | SHAQ Alternative Disability Index, Percent Change from Baseline, Median [2]: −20.00% | SHAQ Finger Ulcers, Change from Baseline, Mean [2]: 0.250 | SHAQ Finger Ulcers, Change from Baseline, Median [2]: 0.000 | SHAQ Finger Ulcers, Percent Change from Baseline, Mean [2]: 6.10% | SHAQ Finger Ulcers, Percent Change from Baseline, Median [2]: 6.10% | SHAQ Standard Disability Index, Change from Baseline, Mean [2]: −0.063 | SHAQ Standard Disability Index, Change from Baseline, Median [2]: −0.063 | SHAQ Standard Disability Index, Percent Change from Baseline, Mean [2]: −9.26% | SHAQ Standard Disability Index, Percent Change from Baseline, Median [2]: −11.11% | SHAQ Visual Analog Scale-Breathing Problems, Change from Baseline, Mean [2]: 0.500 | SHAQ Visual Analog Scale-Breathing Problems, Change from Baseline, Median [2]: 1.050 | SHAQ Visual Analog Scale-Breathing Problems, Percent Change from Baseline, Mean [2]: −2.66% | SHAQ Visual Analog Scale-Breathing Problems, Percent Change from Baseline, Median [2]: 29.58% | SHAQ Visual Analog Scale-Intestinal Problems, Change from Baseline, Mean [2]: −0.125 | SHAQ Visual Analog Scale-Intestinal Problems, Change from Baseline, Median [2]: 0.000 | SHAQ Visual Analog Scale-Intestinal Problems, Percent Change from Baseline, Mean [2]: −6.92% | SHAQ Visual Analog Scale-Intestinal Problems, Percent Change from Baseline, Median [2]: 0.00% | SHAQ Visual Analog Scale-Pain, Change from Baseline, Mean [2]: 1.000 | SHAQ Visual Analog Scale-Pain, Change from Baseline, Median [2]: 0.800 | SHAQ Visual Analog Scale-Pain, Percent Change from Baseline, Mean [2]: 31.35% | SHAQ Visual Analog Scale-Pain, Percent Change from Baseline, Median [2]: 10.81% | SHAQ Visual Analog Scale-Raynaud's, Change from Baseline, Mean [2]: −0.825 | SHAQ Visual Analog Scale-Raynaud's, Change from Baseline, Median [2]: −0.500 | SHAQ Visual Analog Scale-Raynaud's, Percent Change from Baseline, Mean [2]: −19.71% | SHAQ Visual Analog Scale-Raynaud's, Percent Change from Baseline, Median [2]: −20.67% | SHAQ Alternative Disability Index, Change from Baseline, Mean [3]: −0.094 | SHAQ Alternative Disability Index, Change from Baseline, Median [3]: −0.125 | SHAQ Alternative Disability Index, Percent Change from Baseline, Mean [3]: −43.70% | SHAQ Alternative Disability Index, Percent Change from Baseline, Median [3]: −20.00% | SHAQ Standard Disability Index, Change from Baseline, Mean [3]: −0.063 | SHAQ Standard Disability Index, Change from Baseline, Median [3]: −0.063 | SHAQ Standard Disability Index, Percent Change from Baseline, Mean [3]: −9.26% | SHAQ Standard Disability Index, Percent Change from Baseline, Median [3]: −11.11% | SHAQ Alternative Disability Index, Change from Baseline, Mean [4]: −0.094 | SHAQ Alternative Disability Index, Change from Baseline, Median [4]: −0.125 | SHAQ Alternative Disability Index, In-Clinic Visit (Day 12), Mean [4]: 0.375 | SHAQ Alternative Disability Index, In-Clinic Visit (Day 12), Median [4]: 0.250 | SHAQ Alternative Disability Index, Percent Change from Baseline, Mean [4]: −43.70% | SHAQ Alternative Disability Index, Percent Change from Baseline, Median [4]: −20.00% | SHAQ Visual Analogue Scale - Finger Ulcers, Change from Baseline, Mean [4]: 0.250 | SHAQ Visual Analogue Scale - Finger Ulcers, Change from Baseline, Median [4]: 0.000 | SHAQ Visual Analogue Scale - Finger Ulcers, In-Clinic Visit (Day 12), Mean [4]: 2.325 | SHAQ Visual Analogue Scale - Finger Ulcers, In-Clinic Visit (Day 12), Median [4]: 0.050 | SHAQ Visual Analogue Scale - Finger Ulcers, Percent Change from Baseline, Mean [4]: 6.10% | SHAQ Visual Analogue Scale - Finger Ulcers, Percent Change from Baseline, Median [4]: 6.10% | SHAQ Visual Analogue Scale - Intestinal Problems, Change from Baseline, Mean [4]: −0.125 | SHAQ Visual Analogue Scale - Intestinal Problems, Change from Baseline, Median [4]: 0.000 | SHAQ Visual Analogue Scale - Intestinal Problems, In-Clinic Visit (Day 12), Mean [4]: 3.025 | SHAQ Visual Analogue Scale - Intestinal Problems, In-Clinic Visit (Day 12), Median [4]: 1.450 | SHAQ Visual Analogue Scale - Intestinal Problems, Percent Change from Baseline, Mean [4]: −6.92% | SHAQ Visual Analogue Scale - Intestinal Problems, Percent Change from Baseline, Median [4]: 0.00% | SHAQ Visual Analogue Scale - Overall Disease Severity, Change from Baseline, Mean [4]: 0.625 | SHAQ Visual Analogue Scale - Overall Disease Severity, Change from Baseline, Median [4]: 0.700 | SHAQ Visual Analogue Scale - Overall Disease Severity, In-Clinic Visit (Day 12), Mean [4]: 5.600 | SHAQ Visual Analogue Scale - Overall Disease Severity, In-Clinic Visit (Day 12), Median [4]: 6.550 | SHAQ Visual Analogue Scale - Overall Disease Severity, Percent Change from Baseline, Mean [4]: 32.49% | SHAQ Visual Analogue Scale - Overall Disease Severity, Percent Change from Baseline, Median [4]: 26.79% | SHAQ Visual Analogue Scale - Pain, Change from Baseline, Mean [4]: 1.000 | SHAQ Visual Analogue Scale - Pain, Change from Baseline, Median [4]: 0.800 | SHAQ Visual Analogue Scale - Pain, In-Clinic Visit (Day 12), Mean [4]: 5.300 | SHAQ Visual Analogue Scale - Pain, In-Clinic Visit (Day 12), Median [4]: 5.850 | SHAQ Visual Analogue Scale - Pain, Percent Change from Baseline, Mean [4]: 31.35% | SHAQ Visual Analogue Scale - Pain, Percent Change from Baseline, Median [4]: 10.81% | SHAQ Visual Analogue Scale - Raynaud's, Change from Baseline, Mean [4]: −0.825 | SHAQ Visual Analogue Scale - Raynaud's, Change from Baseline, Median [4]: −0.500 | SHAQ Visual Analogue Scale - Raynaud's, In-Clinic Visit (Day 12), Mean [4]: 4.950 | SHAQ Visual Analogue Scale - Raynaud's, In-Clinic Visit (Day 12), Median [4]: 5.200 | SHAQ Visual Analogue Scale - Raynaud's, Percent Change from Baseline, Mean [4]: −19.71% | SHAQ Visual Analogue Scale - Raynaud's, Percent Change from Baseline, Median [4]: −20.67% | SHAQ Visual Analogue Scale - Breathing Problems, Change from Baseline, Mean [5]: 0.500 | SHAQ Visual Analogue Scale - Breathing Problems, Change from Baseline, Median [5]: 1.050 | SHAQ Visual Analogue Scale - Breathing Problems, In-Clinic Visit (Day 12), Mean [5]: 4.300 | SHAQ Visual Analogue Scale - Breathing Problems, In-Clinic Visit (Day 12), Median [5]: 4.000 | SHAQ Visual Analogue Scale - Breathing Problems, Percent Change from Baseline, Mean [5]: −2.66% | SHAQ Visual Analogue Scale - Breathing Problems, Percent Change from Baseline, Median [5]: 29.58% | SHAQ Alternative Disability Index, Mean [6]: 0.375 | SHAQ Alternative Disability Index, Median [6]: 0.250 | SHAQ Standard Disability Index, Mean [6]: 0.531 | SHAQ Standard Disability Index, Median [6]: 0.563 | SHAQ Finger Ulcers, Baseline, Mean [7]: 2.075 | SHAQ Finger Ulcers, Baseline, Median [7]: 0.050 | SHAQ Finger Ulcers, In Clinic Visit (Day 12), Mean [7]: 2.325 | SHAQ Finger Ulcers, In Clinic Visit (Day 12), Median [7]: 0.050 | SHAQ Standard disability index, Baseline, Mean [7]: 0.594 | SHAQ Standard disability index, Baseline, Median [7]: 0.625 | SHAQ Standard disability index, In Clinic Visit (Day 12), Mean [7]: 0.531 | SHAQ Standard disability index, In Clinic Visit (Day 12), Median [7]: 0.563 | SHAQ Visual Analog Scale-Breathing Problems, Baseline, Mean [7]: 3.800 | SHAQ Visual Analog Scale-Breathing Problems, Baseline, Median [7]: 4.050 | SHAQ Visual Analog Scale-Breathing Problems, In Clinic Visit (Day 12), Mean [7]: 4.300 | SHAQ Visual Analog Scale-Breathing Problems, In Clinic Visit (Day 12), Median [7]: 4.000 | SHAQ Visual Analog Scale-Intestinal Problems, Baseline, Mean [7]: 3.150 | SHAQ Visual Analog Scale-Intestinal Problems, Baseline, Median [7]: 2.600 | SHAQ Visual Analog Scale-Intestinal Problems, In Clinic Visit (Day 12), Mean [7]: 3.025 | SHAQ Visual Analog Scale-Intestinal Problems, In Clinic Visit (Day 12), Median [7]: 1.450 | SHAQ Visual Analog Scale-Pain, Baseline, Mean [7]: 5.967 | SHAQ Visual Analog Scale-Pain, Baseline, Median [7]: 7.400 | SHAQ Visual Analog Scale-Pain, In Clinic Visit (Day 12), Mean [7]: 5.300 | SHAQ Visual Analog Scale-Pain, In Clinic Visit (Day 12), Median [7]: 5.850 | SHAQ Visual Analog Scale-Raynaud's, Baseline, Mean [7]: 5.775 | SHAQ Visual Analog Scale-Raynaud's, Baseline, Median [7]: 6.400 | SHAQ Visual Analog Scale-Raynaud's, In Clinic Visit (Day 12), Mean [7]: 4.950 | SHAQ Visual Analog Scale-Raynaud's, In Clinic Visit (Day 12), Median [7]: 5.200 | SHAQ alternative disability index, Baseline, Mean [7]: 0.469 | SHAQ alternative disability index, Baseline, Median [7]: 0.375
